In patent US9090628B2, “Benzoxazepin compounds selective for PI3K P110 delta and methods of use” (GENENTECH, INC., priority 2011, dated 2015):

Tests used:
[1] = biological target: p110 delta (Homo sapiens (Human), UniProt O00329); test: PI3K isoform inhibition assay, p110 delta (fluorescence polarization displacement); type: biochemical
[2] = test system: CD69 production by B lymphocytes in human whole blood activated with anti-human IgM; test: CD69 Whole Blood Assay; type: cell-based; details: Lymphocyte, anti-IgM stimulated, CD69 positive of CD20 positive cells
Excerpt: There is good evidence that B-cells play a key role in the pathogenesis of autoimmune and/or inflammatory disease. Protein-based therapeutics that deplete B cells such as Rituxan are effective against autoantibody-driven inflammatory diseases such as rheumatoid arthritis (Rastetter et al. (2004) Annu Rev Med 55:477). CD69 is the early activation marker in leukocytes including T cells, thymocytes, B cells, NK cells, neutrophils, and eosinophils. The CD69 human whole blood assay (Example 903) determines the ability of compounds to inhibit the production of CD69 by B lymphocytes in human whole blood activated by crosslinking surface IgM with goat F(ab′)2 anti-human IgM.
Human blood is obtained from healthy volunteers, with the following restrictions: 1 week drug-free, non-smokers. Blood (approximately 20 mls to test 8 compounds) is collected by venipuncture into Vacutainer tubes with sodium heparin.
Solutions of Formula I compounds at 1000 or 2000 μM in PBS (20×), are diluted by three-fold serial dilutions in 10% DMSO in PBS for a nine point dose-response curve. An aliquot of 5.5 μl of each compound is added in duplicate to a 2 ml 96-well plate; 5.5 μl of 10% DMSO in PBS is added as control and no-stimulus wells. Human whole blood—HWB (100 μl) is added to each well. After mixing the plates are incubated at 37° C., 5% CO2, 100% humidity for 30 minutes. Goat F(ab′)2 anti-human IgM (10 μl of a 500 μg/ml solution, 50 μg/ml final) is added to each well (except the no-stimulus wells) with mixing and the plates are incubated for an additional 20 hours. At the end of the 20 hour incubation, samples are incubated with fluorescent labeled antibodies for 30 minutes, at 37° C., 5% CO2, 100% humidity. Include induced control, unstained and single stains for compensation adjustments and initial voltage settings. Samples are then lysed with Pharmingen Lyse according to the manufacturer's instructions. Samples are then transferred to a 96 well plate suitable to be run on the AMS 96 well system on the BD Calibur FACs machine. Data acquired and Mean Fluorescence Intensity values were obtained using Cell Quest Software. Results are initially analyzed by FACS analysis software (Flow Jo).

[3] = biological target: p110 alpha (Homo sapiens (Human), UniProt P42336); test: PI3K isoform inhibition assay, p110 alpha (for alpha/delta selectivity); details: ratio of biochemical IC50 values
How it was run: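 Fluorescence polarization displacement of a fluorescent PIP3 probe from GRP-1 detector by PI3K-formed PIP3; p110α/p85α at 40 ng/mL with 10 μM PIP2 substrate.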

Sequence of p110 delta (O00329 whole entry, canonical isoform): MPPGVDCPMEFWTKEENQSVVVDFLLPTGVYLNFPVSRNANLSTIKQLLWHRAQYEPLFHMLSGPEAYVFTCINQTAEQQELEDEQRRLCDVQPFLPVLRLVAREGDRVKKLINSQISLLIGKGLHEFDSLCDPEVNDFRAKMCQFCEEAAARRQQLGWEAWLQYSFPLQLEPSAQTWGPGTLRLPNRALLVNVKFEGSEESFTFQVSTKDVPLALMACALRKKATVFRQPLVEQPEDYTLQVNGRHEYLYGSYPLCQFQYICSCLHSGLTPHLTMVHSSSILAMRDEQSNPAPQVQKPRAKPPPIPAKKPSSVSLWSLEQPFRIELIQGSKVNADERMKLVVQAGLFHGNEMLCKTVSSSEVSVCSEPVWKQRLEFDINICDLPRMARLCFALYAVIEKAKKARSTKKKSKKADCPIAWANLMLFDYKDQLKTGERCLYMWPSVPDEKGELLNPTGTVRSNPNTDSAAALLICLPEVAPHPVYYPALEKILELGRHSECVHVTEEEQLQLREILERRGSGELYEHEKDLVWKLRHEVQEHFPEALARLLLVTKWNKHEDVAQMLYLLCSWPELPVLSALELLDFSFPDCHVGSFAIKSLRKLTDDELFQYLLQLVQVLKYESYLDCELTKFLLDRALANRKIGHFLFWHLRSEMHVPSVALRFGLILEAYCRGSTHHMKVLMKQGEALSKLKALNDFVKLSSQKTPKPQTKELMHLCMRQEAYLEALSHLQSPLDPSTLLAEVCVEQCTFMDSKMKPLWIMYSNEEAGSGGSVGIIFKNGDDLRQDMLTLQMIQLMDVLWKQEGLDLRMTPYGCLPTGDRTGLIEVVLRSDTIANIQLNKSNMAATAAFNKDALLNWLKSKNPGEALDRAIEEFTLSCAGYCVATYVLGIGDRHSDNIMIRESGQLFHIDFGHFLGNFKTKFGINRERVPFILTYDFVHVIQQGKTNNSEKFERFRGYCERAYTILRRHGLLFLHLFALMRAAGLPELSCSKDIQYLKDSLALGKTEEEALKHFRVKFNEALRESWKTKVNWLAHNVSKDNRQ
Sequence of p110 delta (P27986 whole entry partner, canonical isoform): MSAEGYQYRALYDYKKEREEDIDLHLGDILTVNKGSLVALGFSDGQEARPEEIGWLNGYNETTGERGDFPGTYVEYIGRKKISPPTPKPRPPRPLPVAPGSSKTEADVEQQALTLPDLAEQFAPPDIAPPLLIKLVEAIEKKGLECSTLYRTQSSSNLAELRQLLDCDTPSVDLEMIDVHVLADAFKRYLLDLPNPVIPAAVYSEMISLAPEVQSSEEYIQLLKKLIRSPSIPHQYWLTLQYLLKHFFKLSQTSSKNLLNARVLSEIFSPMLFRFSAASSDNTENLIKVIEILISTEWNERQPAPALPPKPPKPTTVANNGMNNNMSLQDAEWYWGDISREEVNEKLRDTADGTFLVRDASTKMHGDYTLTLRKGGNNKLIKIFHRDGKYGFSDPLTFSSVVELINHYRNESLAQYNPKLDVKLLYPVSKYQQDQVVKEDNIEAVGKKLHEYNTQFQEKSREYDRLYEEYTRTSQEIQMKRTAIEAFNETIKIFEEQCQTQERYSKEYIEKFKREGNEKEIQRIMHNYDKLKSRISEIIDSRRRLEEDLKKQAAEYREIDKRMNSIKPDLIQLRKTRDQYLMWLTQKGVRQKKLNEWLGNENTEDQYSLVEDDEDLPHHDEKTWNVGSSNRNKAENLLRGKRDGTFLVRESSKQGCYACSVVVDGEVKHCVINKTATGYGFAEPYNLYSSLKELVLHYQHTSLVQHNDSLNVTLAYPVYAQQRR
Sequence of p110 alpha (P42336 whole entry, canonical isoform): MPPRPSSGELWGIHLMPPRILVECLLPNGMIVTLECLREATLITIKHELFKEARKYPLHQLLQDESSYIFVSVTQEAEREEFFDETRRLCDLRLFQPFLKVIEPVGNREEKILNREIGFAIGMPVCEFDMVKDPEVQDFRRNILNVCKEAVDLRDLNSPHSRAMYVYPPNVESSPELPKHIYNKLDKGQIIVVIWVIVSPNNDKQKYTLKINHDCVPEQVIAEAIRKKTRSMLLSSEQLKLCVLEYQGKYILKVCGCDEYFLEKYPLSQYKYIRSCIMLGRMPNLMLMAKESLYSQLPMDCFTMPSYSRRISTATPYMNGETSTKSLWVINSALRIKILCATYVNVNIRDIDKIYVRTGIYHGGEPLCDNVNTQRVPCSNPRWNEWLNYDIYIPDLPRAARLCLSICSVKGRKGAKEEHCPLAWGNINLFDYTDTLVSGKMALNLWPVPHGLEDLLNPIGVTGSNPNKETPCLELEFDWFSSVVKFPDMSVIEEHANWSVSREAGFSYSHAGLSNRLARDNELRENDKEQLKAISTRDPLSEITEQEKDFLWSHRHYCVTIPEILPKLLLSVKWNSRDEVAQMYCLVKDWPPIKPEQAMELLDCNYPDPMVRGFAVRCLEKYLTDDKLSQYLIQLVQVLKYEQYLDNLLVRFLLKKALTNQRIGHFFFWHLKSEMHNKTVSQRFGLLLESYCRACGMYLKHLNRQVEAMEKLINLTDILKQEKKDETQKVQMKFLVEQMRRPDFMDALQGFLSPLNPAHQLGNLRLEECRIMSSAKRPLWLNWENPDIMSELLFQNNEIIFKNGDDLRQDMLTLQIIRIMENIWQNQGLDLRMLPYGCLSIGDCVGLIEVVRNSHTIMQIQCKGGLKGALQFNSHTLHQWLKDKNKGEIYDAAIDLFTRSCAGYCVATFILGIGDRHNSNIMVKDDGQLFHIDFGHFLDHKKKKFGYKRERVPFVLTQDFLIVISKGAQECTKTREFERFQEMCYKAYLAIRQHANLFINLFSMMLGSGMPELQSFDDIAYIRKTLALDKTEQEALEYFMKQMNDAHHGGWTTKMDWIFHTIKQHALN
Sequence of p110 alpha (P27986 whole entry partner, canonical isoform): as the sequence (P27986 whole entry partner, canonical isoform) above

Row | IC50 [1] [nM] | IC50 [2] [nM] | IC50 p110 alpha/IC50 p110 delta [3] | SMILES
1 | – | 38.1 | – | CC(C)n1ncnc1-c1cn2c(n1)-c1cnc(N3CCCC3C3CCN(C)CC3)cc1OCC2 (stereo not drawn) [Example 115, 2-(1-isopropyl-1H-1,2,4-triazol-5-yl)-9-(2-(1-methylpiperidin-4-yl)pyrrolidin-1-yl)-5,6-dihydroimidazo[1,2-d]pyrido[3,4-f][1,4]oxazepine]
2 | 0.442 | 58.2 | 14.4 | CC(Oc1ccc2c(c1)OCCn1cc(-c3ncnn3C(C)C)nc1-2)C1CCN(C(C)C)CC1 (stereo not drawn) [Example 143, 2-(1-isopropyl-1H-1,2,4-triazol-5-yl)-9-(1-(1-isopropylpiperidin-4-yl)ethoxy)-5,6-dihydrobenzo[f]imidazo[1,2-d][1,4]oxazepine]
3 | – | 45.9 | – | CC(C)n1ncnc1-c1cn2c(n1)-c1ccc(-c3ccnn3C3CCN(C)CC3)cc1OCC2 [Example 160, 2-(1-isopropyl-1H-1,2,4-triazol-5-yl)-9-(1-(1-methylpiperidin-4-yl)-1H-pyrazol-5-yl)-5,6-dihydrobenzo[f]imidazo[1,2-d][1,4]oxazepine]
4 | – | 49.7 | – | Cc1nc(-c2cn3c(n2)-c2ccc(-c4cnn(C)c4C4CCCN(C(C)(C)CO)C4)cc2OCC3)n(C(C)C)n1 (stereo not drawn) [Example 248, 2-(3-(4-(2-(1-isopropyl-3-methyl-1H-1,2,4-triazol-5-yl)-5,6-dihydrobenzo[f]imidazo[1,2-d][1,4]oxazepin-9-yl)-1-methyl-1H-pyrazol-5-yl)piperidin-1-yl)-2-methylpropan-1-ol]
5 | – | 45.8 | – | Cc1nc(-c2cn3c(n2)-c2ccc(N4CCC[C@@H]4C4CCN(C(C)C)CC4)cc2OCC3)n(C(C)C)n1 [Example 263, (R)-2-(1-isopropyl-3-methyl-1H-1,2,4-triazol-5-yl)-9-(2-(1-isopropylpiperidin-4-yl)pyrrolidin-1-yl)-5,6-dihydrobenzo[f]imidazo[1,2-d][1,4]oxazepine]
6 | 2.63 | – | 83.2 | Cc1nc(-c2cn3c(n2)-c2cc([C@@H](C)N4CCN(C(C)(C)CO)CC4)ncc2OCC3)n(C(C)C)n1 [Example 365, (R)-2-(4-(1-(2-(1-isopropyl-3-methyl-1H-1,2,4-triazol-5-yl)-5,6-dihydroimidazo[1,2-d]pyrido[4,3-f][1,4]oxazepin-10-yl)ethyl)piperazin-1-yl)-2-methylpropan-1-ol]
7 | < 0.035 | – | 172 | Cc1nc(-c2cn3c(n2)-c2ccc(-c4cnn(C)c4C4CN(C(C)C)CCN4C)cc2OCC3)n(C(C)C)n1 (stereo not drawn) [Example 366, 9-[5-(4-isopropyl-1-methyl-piperazin-2-yl)-1-methyl-pyrazol-4-yl]-2-(2-isopropyl-5-methyl-1,2,4-triazol-3-yl)-5,6-dihydroimidazo[1,2-d][1,4]benzoxazepine]
8 | 3.09 | – | 40.4 | Cc1nc(-c2cn3c(n2)-c2ccc(-n4ccnc4C4CCCN(C(C)C)C4)cc2OCC3)n(C(C)C)n1 (stereo not drawn) [Example 369, 2-(2-isopropyl-5-methyl-1,2,4-triazol-3-yl)-9-[2-(1-isopropyl-3-piperidyl)imidazol-1-yl]-5,6-dihydroimidazo[1,2-d][1,4]benzoxazepine]
9 | 0.571 | – | 16.1 | Cc1nc(-c2cn3c(n2)-c2cnc(-c4cnn(C)c4C4CCCN(C(C)C)C4)cc2OCC3)n(C(C)C)n1 (stereo not drawn) [Example 370, 2-(1-isopropyl-3-methyl-1H-1,2,4-triazol-5-yl)-9-(5-(1-isopropylpiperidin-3-yl)-1-methyl-1H-pyrazol-4-yl)-5,6-dihydroimidazo[1,2-d]pyrido[3,4-f][1,4]oxazepine]
10 | 3.13 | – | 15.7 | Cc1nc(-c2cn3c(n2)-c2cc(C(C)N4CCN(C)CC4)c(F)cc2OCC3)n(C(C)C)n1 (stereo not drawn) [Example 373, 9-fluoro-2-(2-isopropyl-5-methyl-1,2,4-triazol-3-yl)-10-[1-(4-methylpiperazin-1-yl)ethyl]-5,6-dihydroimidazo[1,2-d][1,4]benzoxazepine]

The next lines start with the molecule.

Row | SMILES | IC50 [1] [nM] | IC50 [2] [nM] | IC50 p110 alpha/IC50 p110 delta [3]
11 | CC(C)n1ncnc1-c1cn2c(n1)-c1cc(CN3CCN(C(C)(C)C)CC3)ccc1OCC2 [Example 108, 10-((4-tert-butylpiperazin-1-yl)methyl)-2-(1-isopropyl-1H-1,2,4-triazol-5-yl)-5,6-dihydrobenzo[f]imidazo[1,2-d][1,4]oxazepine] | 2.46 | 40.5 | 21.8
12 | CC(C)n1ncnc1-c1cn2c(n1)-c1cc(C(=O)N3CCN(C(C)(C)C)CC3)ccc1OCC2 [Example 110, (4-tert-butylpiperazin-1-yl)(2-(1-isopropyl-1H-1,2,4-triazol-5-yl)-5,6-dihydrobenzo[f]imidazo[1,2-d][1,4]oxazepin-10-yl)methanone] | 0.919 | 129 | 27.1
13 | Cc1nc(-c2cn3c(n2)-c2ccc(-c4cnn(C)c4N4CCN(C)[C@H](C(C)C)C4)cc2OCC3)n(C(C)C)n1 [Example 367, 9-[5-[(3R)-3-isopropyl-4-methyl-piperazin-1-yl]-1-methyl-pyrazol-4-yl]-2-(2-isopropyl-5-methyl-1,2,4-triazol-3-yl)-5,6-dihydroimidazo[1,2-d][1,4]benzoxazepine] | 0.048 | – | 48.8
14 | COc1cc2c(cc1[C@@H](C)N1CCN(C(C)(C)C)CC1)-c1nc(-c3nc(C)nn3C(C)C)cn1CCO2 [Example 368, 10-[(1R)-1-(4-tert-butylpiperazin-1-yl)ethyl]-2-(2-isopropyl-5-methyl-1,2,4-triazol-3-yl)-9-methoxy-5,6-dihydroimidazo[1,2-d][1,4]benzoxazepine] | 1.06 | – | 92.4
15 | COc1cc2c(cc1[C@H](C)N1CCN(C(C)(C)C)CC1)-c1nc(-c3nc(C)nn3C(C)C)cn1CCO2 [Example 371, 10-[(1S)-1-(4-tert-butylpiperazin-1-yl)ethyl]-2-(2-isopropyl-5-methyl-1,2,4-triazol-3-yl)-9-methoxy-5,6-dihydroimidazo[1,2-d][1,4]benzoxazepine] | 5.3 | – | 11.7
16 | Cc1nc(-c2cn3c(n2)-c2ccc(-c4cnn(C)c4C4CN(C(C)C)CCO4)cc2OCC3)n(C(C)C)n1 (stereo not drawn) [Example 372, 2-(2-isopropyl-5-methyl-1,2,4-triazol-3-yl)-9-[5-(4-isopropylmorpholin-2-yl)-1-methyl-pyrazol-4-yl]-5,6-dihydroimidazo[1,2-d][1,4]benzoxazepine] | 0.992 | – | 18
17 | CCN1CCN(C(C)c2cc3c(cc2F)OCCn2cc(-c4nc(C)nn4C(C)C)nc2-3)CC1 (stereo not drawn) [Example 374, 10-[1-(4-ethylpiperazin-1-yl)ethyl]-9-fluoro-2-(2-isopropyl-5-methyl-1,2,4-triazol-3-yl)-5,6-dihydroimidazo[1,2-d][1,4]benzoxazepine] | 4.85 | – | 17.9
